Source: US20240174690A1, “ANNULATED 2-AMINO-3-CYANO THIOPHENES AND DERIVATIVES FOR THE TREATMENT OF CANCER” (BOEHRINGER INGELHEIM INTERNATIONAL GMBH, priority 2021, published 2024)

Columns and labels:
[1] = target: KRAS (G12D)::SOS1 (Homo sapiens (Human), UniProt P01116, G12D); test: KRAS::SOS1 AlphaScreen binding assay, KRAS G12D
Summary of the method: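 Compounds (up to 100 μM, eleven fivefold dilutions in duplicate) were incubated 30 min with KRAS 1-169 (10 nM, or 7.5 nM for G12C), GST-SOS1 564-1049 (5 nM for G12D/G12C, 10 nM for others) and 10 μM GDP in PBS buffer with BSA and Tween. Donor/acceptor beads were then added for 60 min at room temperature, and IC50 came from a 4-parameter fit of the AlphaScreen signal.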

[2] = Caco-2 assay (permeability PappAB, PappBA, efflux ratio); type: in vitro ADME; details: human, Caco-2, 10 μM test compound, pH 7.4; for Papp A→B at 90 min, 10 μM: apical to basolateral; for efflux ratio at 90 min, 10 μM: efflux ratio PappBA/PappAB, read-out: Caco ER
Summary of the method: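 Confluent Caco-2 monolayers on filter supports, 0.25% BSA in both donor and receiver buffer; transport measured a-b and b-a. After 25-30 min preincubation at 37 °C, samples at 0, 30, 60, 90 min quantified by HPLC/MS/MS. Papp from receiver amount per time, filter area and initial donor concentration; efflux ratio = PappBA/PappAB.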

Chain of KRAS (G12D)::SOS1 (P01116 other isoform, or with tags, fused parts or gaps G12D): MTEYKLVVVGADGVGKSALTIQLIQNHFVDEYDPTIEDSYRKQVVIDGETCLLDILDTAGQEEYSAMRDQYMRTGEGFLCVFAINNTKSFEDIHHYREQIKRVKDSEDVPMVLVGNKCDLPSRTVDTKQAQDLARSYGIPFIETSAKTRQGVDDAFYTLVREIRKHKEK

SMILES	IC50 [1]	Papp A→B at 90 min, 10 μM [2]	efflux ratio at 90 min, 10 μM [2]
C[C@H](Oc1cc(Cl)nc(-c2onc3c2CCC[C@@]32CCCc3sc(N)c(C#N)c32)n1)[C@@H]1CCCN1C [I-1]	3 nM	–	–
C[C@H](Oc1nc(-c2onc3c2CCC[C@@]32CCCc3sc(N)c(C#N)c32)cc(N2CCNC3(CC3)C2)n1)[C@@H]1CCCN1C [I-2]	2 nM	1.2 ×10⁻⁶ cm/s	17.5
C[C@H](Oc1cc(N2CCNC3(CCC3)C2)nc(-c2onc3c2CCC[C@@]32CCCc3sc(N)c(C#N)c32)n1)[C@@H]1CCCN1C [I-3]	1 nM	1.2 ×10⁻⁶ cm/s	20.8
C[C@H](Oc1cc(N2CCNC3(COC3)C2)nc(-c2onc3c2CCC[C@@]32CCCc3sc(N)c(C#N)c32)n1)[C@@H]1CCCN1C [I-4]	1 nM	< 4.8 ×10⁻⁶ cm/s	–
C[C@H](Oc1cc(-n2ccnc2)nc(-c2onc3c2CCC[C@@]32CCCc3sc(N)c(C#N)c32)n1)[C@@H]1CCCN1C [I-20]	2 nM	4.3 ×10⁻⁶ cm/s	4.9
C[C@H](Oc1cc(-c2ccn(C)n2)nc(-c2onc3c2CCC[C@@]32CCCc3sc(N)c(C#N)c32)n1)[C@@H]1CCCN1C [I-21]	4 nM	–	–
C[C@H](Oc1cc([C@@H]2CCOC2)nc(-c2onc3c2CCC[C@@]32CCCc3sc(N)c(C#N)c32)n1)[C@@H]1CCCN1C [I-22]	1 nM	18 ×10⁻⁶ cm/s	1.9
CO[C@@H]1C[C@@H]([C@H](C)Oc2cc(-c3ccn(C)n3)nc(-c3onc4c3CCC[C@@]43CCCc4sc(N)c(C#N)c43)n2)N(C)C1 [I-23]	7 nM	9.2 ×10⁻⁶ cm/s	1.5
Cc1nc(-c2cc(O[C@@H](C)[C@@H]3CCCN3C)nc(-c3onc4c3CCC[C@@]43CCCc4sc(N)c(C#N)c43)n2)cs1 [I-24]	2 nM	–	–
C[C@H](Oc1cc(-c2ccc(N)nc2)nc(-c2onc3c2CCC[C@@]32CCCc3sc(N)c(C#N)c32)n1)[C@@H]1CCCN1C [I-25]	5 nM	–	–
C[C@H](Oc1cc(-c2ccn(CC(C)(C)O)n2)nc(-c2onc3c2CCC[C@@]32CCCc3sc(N)c(C#N)c32)n1)[C@@H]1CCCN1C [I-26]	3 nM	3 ×10⁻⁶ cm/s	10.7
C[C@H](Oc1cc(-c2cnsc2)nc(-c2onc3c2CCC[C@@]32CCCc3sc(N)c(C#N)c32)n1)[C@@H]1CCCN1C [I-27]	3 nM	–	1.1
Cc1ccc(-c2cc(O[C@@H](C)[C@@H]3CCCN3C)nc(-c3onc4c3CCC[C@@]43CCCc4sc(N)c(C#N)c43)n2)cn1 [I-28]	10 nM	–	–
C[C@H](Oc1cc(-n2nccn2)nc(-c2onc3c2CCC[C@@]32CCCc3sc(N)c(C#N)c32)n1)[C@@H]1CCCN1C [I-29]	6 nM	–	–
C[C@H](Oc1cc(-c2ccn(C[C@@H](C)O)n2)nc(-c2onc3c2CCC[C@@]32CCCc3sc(N)c(C#N)c32)n1)[C@@H]1CCCN1C [I-30]	2 nM	2 ×10⁻⁶ cm/s	18.5
C[C@H](O)Cn1ccc(-c2cc(O[C@@H](C)[C@@H]3CCCN3C)nc(-c3onc4c3CCC[C@@]43CCCc4sc(N)c(C#N)c43)n2)n1 [I-31]	3 nM	2.3 ×10⁻⁶ cm/s	13.9
C[C@H](Oc1cc(-n2ccnn2)nc(-c2onc3c2CCC[C@@]32CCCc3sc(N)c(C#N)c32)n1)[C@@H]1CCCN1C [I-32]	2 nM	–	–
C[C@H](Oc1cc(-c2ccn3ncnc3c2)nc(-c2onc3c2CCC[C@@]32CCCc3sc(N)c(C#N)c32)n1)[C@@H]1CCCN1C [I-33]	6 nM	–	–
C[C@H](Oc1cc(-c2ccn(C3COC3)n2)nc(-c2onc3c2CCC[C@@]32CCCc3sc(N)c(C#N)c32)n1)[C@@H]1CCCN1C [I-34]	4 nM	3.6 ×10⁻⁶ cm/s	9.2
C[C@H](Oc1cc(N2CCN(C)C3(COC3)C2)nc(-c2onc3c2CCC[C@@]32CCCc3sc(N)c(C#N)c32)n1)[C@@H]1C[C@@H](F)CN1C [I-37]	1 nM	12 ×10⁻⁶ cm/s	2
C[C@H](Oc1cc(N2CCN(C)C3(CC3)C2)nc(-c2onc3c2CCC[C@@]32CCCc3sc(N)c(C#N)c32)n1)[C@@H]1C[C@@H](F)CN1C [I-39]	1 nM	–	0.6
C[C@H](Oc1nc(-c2onc3c2CCC[C@@]32CCCc3sc(N)c(C#N)c32)cc(N2CCN(C)C3(CC3)C2)n1)[C@@H]1CCCN1C [I-40]	6 nM	–	–
C[C@H](Oc1cc(N2CCN(C)C3(CC3)C2)nc(-c2onc3c2CCC[C@@]32CCCc3sc(N)c(C#N)c32)n1)[C@@H]1CCCN1C [I-41]	1 nM	–	–
C[C@H]1CN(C)CCCN1c1nc(-c2onc3c2CCC[C@@]32CCCc3sc(N)c(C#N)c32)cc(N2CCN(C)C3(CC3)C2)n1 [I-42]	35 nM	–	–
C[C@H](Oc1cc(N2C[C@H](C)N(C)[C@@H](C)C2)nc(-c2onc3c2CCC[C@@]32CCCc3sc(N)c(C#N)c32)n1)[C@@H]1CCCN1C [I-43]	1 nM	2.6 ×10⁻⁶ cm/s	6.7

SMILES	IC50 [1]	Papp A→B at 90 min, 10 μM [2]	efflux ratio at 90 min, 10 μM [2]
C[C@H](Oc1cc(N2CCN(C)C3(CCC3)C2)nc(-c2onc3c2CCC[C@@]32CCCc3sc(N)c(C#N)c32)n1)[C@@H]1CCCN1C [I-44]	2 nM	–	–
C[C@H](Oc1cc(N2CCNC3(CC3)C2)nc(-c2onc3c2CCC[C@@]32CCCc3sc(N)c(C#N)c32)n1)[C@@H]1C[C@@H](F)CN1C [I-45]	1 nM	11 ×10⁻⁶ cm/s	3.1
CO[C@H]1CCN(C)[C@@H]1[C@H](C)Oc1cc(-n2ccc(CC(=O)NC(C)C)n2)nc(-c2onc3c2CCC[C@@]32CCCc3sc(N)c(C#N)c32)n1 [I-48]	1 nM	–	–
CO[C@H]1CCN(C)[C@@H]1[C@H](C)Oc1cc(-n2ccc(C(=O)N[C@@H]3CCOC3)n2)nc(-c2onc3c2CCC[C@@]32CCCc3sc(N)c(C#N)c32)n1 [I-53]	1 nM	–	–
CO[C@H]1CCN(C)[C@@H]1[C@H](C)Oc1cc(-n2ccc(C(=O)N[C@H]3CCOC3)n2)nc(-c2onc3c2CCC[C@@]32CCCc3sc(N)c(C#N)c32)n1 [I-54]	1 nM	–	–
COCCNC(=O)c1ccn(-c2cc(O[C@@H](C)[C@@H]3[C@@H](OC)CCN3C)nc(-c3onc4c3CCC[C@@]43CCCc4sc(N)c(C#N)c43)n2)n1 [I-55]	1 nM	–	–
C[C@H](Oc1cc(-n2ccc(C(=O)N[C@H]3CCOC3)n2)nc(-c2onc3c2CCC[C@@]32CCCc3sc(N)c(C#N)c32)n1)[C@@H]1CCCN1C [I-57]	2 nM	–	–
C[C@H](NC(=O)c1ccn(-c2cc(O[C@@H](C)[C@@H]3CCCN3C)nc(-c3onc4c3CCC[C@@]43CCCc4sc(N)c(C#N)c43)n2)n1)c1ccccn1 [I-59]	1 nM	–	–
C[C@H](Oc1cc(-n2ccc(C(=O)N(C)C3COC3)n2)nc(-c2onc3c2CCC[C@@]32CCCc3sc(N)c(C#N)c32)n1)[C@@H]1CCCN1C [I-60]	1 nM	–	–
C[C@H](Oc1cc(N2C[C@@H](N(C)C)[C@@H](F)C2)nc(-c2noc3c2CCC[C@@]32CCCc3sc(N)c(C#N)c32)n1)[C@@H]1CCCN1C [II-11]	1 nM	–	–
C[C@@H]1CN(c2cc(O[C@@H](C)[C@@H]3C[C@@H](F)CN3C)nc(-c3noc4c3CCC[C@@]43CCCc4sc(N)c(C#N)c43)n2)CC2(CC2)N1 [II-17]	2 nM	–	–
C[C@H](Oc1cc(N2C[C@H](C)NC3(CC3)C2)nc(-c2noc3c2CCC[C@@]32CCCc3sc(N)c(C#N)c32)n1)[C@@H]1C[C@@H](F)CN1C [II-18]	2 nM	–	–
C[C@H](Oc1cc(-n2ccc(C(=O)N3CCCC3)n2)nc(-c2noc3c2CCC[C@@]32CCCc3sc(N)c(C#N)c32)n1)[C@@H]1CCCN1C [II-19]	1 nM	–	–
CCOC(=O)c1ccn(-c2cc(O[C@@H](C)[C@@H]3CCCN3C)nc(-c3noc4c3CCC[C@@]43CCCc4sc(N)c(C#N)c43)n2)n1 [II-23]	2 nM	–	–
C[C@H](Oc1cc(-n2ccc(C(=O)O)n2)nc(-c2noc3c2CCC[C@@]32CCCc3sc(N)c(C#N)c32)n1)[C@@H]1CCCN1C [II-24]	3 nM	–	–
C[C@H](Oc1cc(-c2cnn(C)n2)nc(-c2noc3c2CCC[C@@]32CCCc3sc(N)c(C#N)c32)n1)[C@@H]1C[C@@H](F)CN1C [II-28]	22 nM	–	–
C[C@H]1CN(C)CCCN1c1cc(N2CCN(C)CC2)nc(-c2noc3c2CCC[C@@]32CCCc3sc(N)c(C#N)c32)n1 [II-30]	4 nM	–	–
C[C@@H]1CN(c2cc(O[C@@H](C)[C@@H]3CCCN3C)nc(-c3noc4c3CCC[C@@]43CCCc4sc(N)c(C#N)c43)n2)C[C@H](C)N1 [II-36]	1 nM	–	–
C[C@H](Oc1cc(N2CCN(C)CC2)nc(-c2noc3c2CCC[C@@]32CCCc3sc(N)c(C#N)c32)n1)[C@@H]1CCCN1[C@@H]1CCOC1 [II-39]	1 nM	–	–
C[C@H](Oc1cc(N2CCNC3(CCCC3)C2)nc(-c2noc3c2CCC[C@@]32CCCc3sc(N)c(C#N)c32)n1)[C@@H]1CCCN1C [II-41]	1 nM	–	–
C[C@H](Oc1cc(N2CCNCC2)nc(-c2noc3c2CCC[C@@]32CCCc3sc(N)c(C#N)c32)n1)[C@@H]1CCCN1C [II-45]	1 nM	–	–
C[C@H](Oc1cc(N2CC[C@@H](N(C)C)C2)nc(-c2noc3c2CCC[C@@]32CCCc3sc(N)c(C#N)c32)n1)[C@@H]1CCCN1C [II-47]	1 nM	–	–
[2H]C([2H])([2H])N1C[C@H](F)C[C@H]1[C@H](C)Oc1cc(N2CCNC3(CC3)C2)nc(-c2noc3c2CCC[C@@]32CCCc3sc(N)c(C#N)c32)n1 [II-208]	–	–	1.8
[2H]C([2H])([2H])N1C[C@H](F)C[C@H]1[C@H](C)Oc1cc(N2CCN(C)C3(CC3)C2)nc(-c2noc3c2CCC[C@@]32CCCc3sc(N)c(C#N)c32)n1 [II-209]	–	–	0.8
